Read-outs that look alike come from different tables or passages of the source.
What was measured:
[1] = molecular target: T1, hM3 (Homo sapiens, UniProt P20309); experiment: Competitive [3H]NMS radioligand binding, CHO-hM3 cell membranes; conditions: for Ki: read-out: Affinity: Ki ± SD, hM3
T1 construct: host or cells: CHO-K1, stably transfected
Procedure: (§1) We first assessed the carbamates’ affinities for human muscarinic acetylcholine receptors subtypes hM1–5 by means of a competitive radioligand binding assay displacing [N-methyl-^3H]scopolamine methyl chloride ([^3H]NMS) in cell membranes expressing the individual receptors.
(§2) Cell membranes bearing hM1-hM5 receptors were prepared as described previously. Briefly, stably transfected CHO-K1 cells were grown to at least 80% confluency in T175 flasks, washed with ice-cold DPBS, and scraped into a mixture of ice-cold of 2 mL 10 mM Tris-HCl, 1 mM EDTA-buffer, pH 7.4 and 200 µL protease inhibitor. A cell homogenate was prepared by passing the cell suspension through a G29 needle. The cell homogenates corresponding to two T175 flasks were combined and subsequently centrifuged (10 min, 1000 × g, 4 °C). Ultracentrifugation of the supernatant (1 h, 100,000 × g, 4 °C) yielded a membrane pellet, which was suspended in 250 µL 50 mM Tris-HCl buffer, pH 7.4 and stored at −80 °C.
(§3) Maximum binding was measured by using 5 µL DMSO, and nonspecific binding was measured by using 5 µL of 1 µM scopolamine in DMSO. […] The membrane-bound radioactivity was recovered by filtration through Whatman™ GF/B glass fibre filters pre-soaked in aqueous 0.1% PEI using an M-36 tygon tubed cell harvester (Brandel®, Gaithersburg, MD, USA). Membranes were washed 3 times with ice-cold washing buffer (50 mM Tris, pH 7.4) before being dried, transferred to 2 mL scintillation cocktail (UltimaGold™, high flashpoint LSC cocktail, PerkinElmer, Waltham, MA, USA) and counted in a β -counter (Hidex TDCR Liquid Scintillation Counter in CPM mode). IC50 values were calculated by a variable slope logistic regression using at least five distinct concentrations of test compounds, pipetted in triplicates.

[2] = molecular target: T2, hM1 (Homo sapiens, UniProt P11229); experiment: Competitive [3H]NMS radioligand binding, CHO-hM1 cell membranes
T2 construct: host or cells: CHO-K1, stably transfected
T2 sequence (P11229 1-460): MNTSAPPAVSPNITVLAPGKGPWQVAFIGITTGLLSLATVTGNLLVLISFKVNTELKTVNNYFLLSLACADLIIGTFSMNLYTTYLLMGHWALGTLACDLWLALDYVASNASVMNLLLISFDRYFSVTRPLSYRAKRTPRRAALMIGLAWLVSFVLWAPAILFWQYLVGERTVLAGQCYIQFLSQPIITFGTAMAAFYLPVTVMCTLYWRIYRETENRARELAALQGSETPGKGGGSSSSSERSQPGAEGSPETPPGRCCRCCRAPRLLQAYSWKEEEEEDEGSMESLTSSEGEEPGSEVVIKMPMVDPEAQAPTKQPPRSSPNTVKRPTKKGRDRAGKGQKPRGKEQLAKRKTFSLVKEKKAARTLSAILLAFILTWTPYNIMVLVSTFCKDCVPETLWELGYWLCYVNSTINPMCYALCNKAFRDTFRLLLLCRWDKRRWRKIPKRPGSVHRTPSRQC
Procedure: as §1, §2, §3

[3] = molecular target: T3, hM4 (Homo sapiens, UniProt P08173); experiment: Competitive [3H]NMS radioligand binding, CHO-hM4 cell membranes
T3 construct: host or cells: CHO-K1, stably transfected
T3 sequence (P08173 1-479): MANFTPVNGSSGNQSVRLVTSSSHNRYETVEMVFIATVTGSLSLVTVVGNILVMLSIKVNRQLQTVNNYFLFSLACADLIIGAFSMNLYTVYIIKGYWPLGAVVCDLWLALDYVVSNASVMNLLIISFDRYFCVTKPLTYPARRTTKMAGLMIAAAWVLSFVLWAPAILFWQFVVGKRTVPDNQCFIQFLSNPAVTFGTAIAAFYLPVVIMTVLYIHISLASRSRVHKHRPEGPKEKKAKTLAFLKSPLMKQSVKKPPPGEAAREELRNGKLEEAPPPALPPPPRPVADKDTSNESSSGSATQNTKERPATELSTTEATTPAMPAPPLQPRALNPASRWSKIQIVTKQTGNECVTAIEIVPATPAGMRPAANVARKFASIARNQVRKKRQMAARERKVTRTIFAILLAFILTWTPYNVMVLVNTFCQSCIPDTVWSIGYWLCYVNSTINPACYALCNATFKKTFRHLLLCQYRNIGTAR
Procedure: as §1, §2, §3

[4] = molecular target: T4, hM2 (Homo sapiens, UniProt P08172); experiment: Competitive [3H]NMS radioligand binding, CHO-hM2 cell membranes; conditions: for Ki: read-out: Affinity: Ki ± SD, hM2
T4 construct: host or cells: CHO-K1, stably transfected
T4 sequence (P08172 1-466): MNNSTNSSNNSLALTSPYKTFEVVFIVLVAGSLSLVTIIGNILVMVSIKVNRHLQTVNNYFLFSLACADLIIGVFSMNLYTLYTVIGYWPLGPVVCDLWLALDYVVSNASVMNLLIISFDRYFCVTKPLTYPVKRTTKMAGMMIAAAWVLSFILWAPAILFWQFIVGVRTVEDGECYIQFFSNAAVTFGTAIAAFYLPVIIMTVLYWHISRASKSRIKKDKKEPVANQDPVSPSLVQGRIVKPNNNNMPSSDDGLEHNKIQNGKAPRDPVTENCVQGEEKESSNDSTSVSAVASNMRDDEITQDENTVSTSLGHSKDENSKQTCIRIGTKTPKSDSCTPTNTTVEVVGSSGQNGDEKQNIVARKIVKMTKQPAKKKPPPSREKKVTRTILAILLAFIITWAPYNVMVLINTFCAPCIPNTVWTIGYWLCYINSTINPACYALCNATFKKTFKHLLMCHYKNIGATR
Procedure: as §1, §2, §3

[5] = molecular target: T5, hM5 (Homo sapiens, UniProt P08912); experiment: Competitive [3H]NMS radioligand binding, CHO-hM5 cell membranes
T5 construct: host or cells: CHO-K1, stably transfected
T5 sequence (P08912 1-532): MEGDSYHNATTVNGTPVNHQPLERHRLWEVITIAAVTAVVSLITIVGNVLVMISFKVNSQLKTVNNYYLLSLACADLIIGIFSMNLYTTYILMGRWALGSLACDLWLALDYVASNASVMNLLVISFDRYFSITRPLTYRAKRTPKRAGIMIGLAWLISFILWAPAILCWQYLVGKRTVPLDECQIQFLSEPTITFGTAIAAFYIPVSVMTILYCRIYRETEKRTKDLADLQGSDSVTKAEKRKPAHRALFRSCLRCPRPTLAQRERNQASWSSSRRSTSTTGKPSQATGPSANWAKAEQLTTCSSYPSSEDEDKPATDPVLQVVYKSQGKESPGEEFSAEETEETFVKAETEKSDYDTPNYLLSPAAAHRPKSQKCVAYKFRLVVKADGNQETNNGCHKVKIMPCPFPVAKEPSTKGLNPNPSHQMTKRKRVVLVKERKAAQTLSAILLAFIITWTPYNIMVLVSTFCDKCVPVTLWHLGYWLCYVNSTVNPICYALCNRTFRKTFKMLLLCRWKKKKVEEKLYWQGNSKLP
Procedure: as §1, §2, §3

[6] = High throughput HPLC-logD (lipophilicity); conditions: pH 7.4
Procedure: Briefly, a mixture of toluene (≥98%, Sigma-Aldrich, St. Louis, MO, USA) and triphenylene (≥99.9%, Carl Roth, Karlsruhe, Germany) was used as internal standard. Each sample was dissolved in the internal standard mixture. Using gradient elution, the injection volume was set to 7 µL, the flow rate was 1.5 mL/min, and the mobile phase consisted of a mixture of methanol and 0.01 M sodium phosphate buffer pH 7.4. The HPLC-logD values were derived from the measured retention times following the previously published equation [27, 30].

[7] = Stability in fully supplemented RPMI1640 cell culture medium; format: in vitro ADME; conditions: fully supplemented RPMI1640, ambient temperature, after 24 h
Procedure: Since the decomposition in cell culture medium of compounds designated for biological testing could impair potential assay readouts, the stabilities of one tertiary carbamate (3) and one secondary carbamate (7) were investigated as representatives for the compound set 1–12. Gratifyingly, the rate of decomposition in fully supplemented RPMI1640 cell culture medium at ambient temperature has been fairly slow, with > 95% of both compounds remaining intact after 24 h (Supplementary Materials, Figure S3). Such stability is adequate with the requirements for carbon-11 labelled PET tracers of around 2–3 half-lives.
The stabilities of 3 and 7 were measured using the HPLC gradient method as described for the purity determination. 4 µL of a test compound’s stock solution in DMSO was diluted with fully supplemented RPMI1640 cell culture medium (10% FBS, 1% L-glutamine, without antibiotics). The stability was measured at ambient temperature and the column oven was set to 20 °C. The samples were measured at 0, 30, 60, 120 min and 24 h.

[8] = single ligand concentration corresponding to a Ki of 1 µM (Cheng-Prusoff)
[9] = inhibition of [3H]NMS binding, CHO-hM1 membranes, read-out: Affinity: Ki ± SD, hM1
[10] = inhibition of [3H]NMS binding, CHO-hM4 membranes, read-out: Affinity: Ki ± SD, hM4
[11] = inhibition of [3H]NMS binding, CHO-hM5 membranes, read-out: Affinity: Ki ± SD, hM5

T1 sequence (P20309 whole entry): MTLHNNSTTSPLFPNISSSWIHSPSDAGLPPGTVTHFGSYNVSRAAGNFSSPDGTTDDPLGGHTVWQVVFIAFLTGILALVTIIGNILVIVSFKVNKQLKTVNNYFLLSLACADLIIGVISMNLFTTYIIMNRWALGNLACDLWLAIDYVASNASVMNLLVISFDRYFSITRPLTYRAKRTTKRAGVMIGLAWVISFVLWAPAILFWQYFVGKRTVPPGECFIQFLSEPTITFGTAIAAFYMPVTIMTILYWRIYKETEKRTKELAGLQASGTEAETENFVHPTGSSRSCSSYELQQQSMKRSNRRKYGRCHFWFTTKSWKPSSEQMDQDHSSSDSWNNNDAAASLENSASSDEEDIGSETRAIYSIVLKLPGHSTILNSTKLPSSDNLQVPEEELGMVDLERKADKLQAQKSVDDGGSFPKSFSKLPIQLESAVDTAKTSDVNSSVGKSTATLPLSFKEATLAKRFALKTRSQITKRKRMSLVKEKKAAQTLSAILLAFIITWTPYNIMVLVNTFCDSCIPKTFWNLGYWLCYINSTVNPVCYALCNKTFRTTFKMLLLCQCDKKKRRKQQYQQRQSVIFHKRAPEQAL

Displacement ± SD of [3H]NMS binding, hM3 [1, 8] | Displacement ± SD of [3H]NMS binding, hM1 [2, 8] | Displacement ± SD of [3H]NMS binding, hM4 [3, 8] | Displacement ± SD of [3H]NMS binding, hM2 [4, 8] | Displacement ± SD of [3H]NMS binding, hM5 [5, 8] | chromatographic logD [6] | x-Fold selectivity for hM1 vs. hM3 ([1]; ratio of Ki values hM3/hM1) | Ki [1] | Ki [2, 9] | Ki [3, 10] | x-Fold selectivity for hM1 vs. hM4 ([3]; ratio of Ki values hM4/hM1) | x-Fold selectivity for hM1 vs. hM2 ([4]; ratio of Ki values hM2/hM1) | Ki [4] | Ki [5, 11] | x-Fold selectivity for hM1 vs. hM5 ([5]; ratio of Ki values hM5/hM1) | Compound remaining intact in cell culture medium [7] | Compound | Ki [2] | Ki [3] | Ki [5]
62 ± 3% | 53 ± 8% | 54 ± 13% | 37 ± 15% | 59 ± 17% | 2.5 ± 0.3 |  |  |  |  |  |  |  |  |  |  | CN1CCCC1CCNC(=O)OC(c1ccc(F)cc1)c1ccc(F)cc1 (stereo not drawn) [Compound 11, Bis(4-fluorophenyl)methyl (2-(1-methylpyrrolidin-2-yl)ethyl)carbamate] |  |  | 
 |  |  |  |  | 2.69 ± 0.01 | 1.2 fold | 0.277 ± 0.0454 µM | 0.239 ± 0.0679 µM | 0.238 ± 0.104 µM | 1.0 fold | >4 fold | > 1 µM | 0.295 ± 0.0328 µM | 1.2 fold |  | CN1CCC(CNC(=O)OC(c2ccc(F)cc2)c2ccc(F)cc2)C1 (stereo not drawn) [Compound 10, Bis(4-fluorophenyl)methyl ((1-methylpyrrolidin-3-yl)methyl)carbamate] |  |  | 
 |  |  |  |  | 2.2 ± 0.2 |  | 0.0161 ± 0.0045 µM | 0.00122 ± 6e-05 µM | 0.0062 ± 0.0021 µM |  |  | 0.0328 ± 0.0114 µM | 0.0037 ± 0.0013 µM |  | > 95% | CN1CCCC(NC(=O)OC(c2ccc(F)cc2)c2ccc(F)cc2)C1 (stereo not drawn) [Compound 7, Bis(4-fluorophenyl)methyl (1-methylpiperidin-3-yl)carbamate] |  |  | 

Continued, compound first:

Compound | Displacement ± SD of [3H]NMS binding, hM3 [1, 8] | Displacement ± SD of [3H]NMS binding, hM1 [2, 8] | Displacement ± SD of [3H]NMS binding, hM4 [3, 8] | Displacement ± SD of [3H]NMS binding, hM2 [4, 8] | Displacement ± SD of [3H]NMS binding, hM5 [5, 8] | chromatographic logD [6] | x-Fold selectivity for hM1 vs. hM3 ([1]; ratio of Ki values hM3/hM1) | Ki [1] | Ki [2, 9] | Ki [3, 10] | x-Fold selectivity for hM1 vs. hM4 ([3]; ratio of Ki values hM4/hM1) | x-Fold selectivity for hM1 vs. hM2 ([4]; ratio of Ki values hM2/hM1) | Ki [4] | Ki [5, 11] | x-Fold selectivity for hM1 vs. hM5 ([5]; ratio of Ki values hM5/hM1) | Compound remaining intact in cell culture medium [7] | Ki [2] | Ki [3] | Ki [5]
CN1CC2CC1CN2C(=O)OC(c1ccc(F)cc1)c1ccc(F)cc1 (stereo not drawn) [Compound 3, Bis(4-fluorophenyl)methyl5-methyl-2,5-diazabicyclo[2.2.1]heptane-2-carboxylate] |  |  |  |  |  | 2.69 ± 0.01 |  | 0.358 ± 0.083 µM | 0.0331 ± 0.0081 µM | 0.115 ± 0.051 µM |  |  | > 1 µM | 0.068 ± 0.0221 µM |  | > 95% |  |  | 
CN1[C@@H]2CC[C@H]1CN(C(=O)OC(c1ccc(F)cc1)c1ccc(F)cc1)C2 [Compound 4, Bis(4-fluorophenyl)methyl (1R,5S)-8-methyl-3,8-diazabicyclo[3.2.1]octane-3 carboxylate] |  |  |  |  |  | 3.28 ± 0.03 |  | 0.142 ± 0.0242 µM |  |  |  |  | 0.85 ± 0.0398 µM |  |  |  | 0.0165 ± 0.0028 µM | 0.0196 ± 0.0055 µM | 0.0418 ± 0.0148 µM
